These results are taken from paper PMC9241925, “DWV 3C Protease Uncovers the Diverse Catalytic Triad in Insect RNA Viruses” (Microbiology Spectrum, 2022).

Data set [1] addresses T1, DWV 3C protease (GST-DWV 3C^pro) (Deformed wing virus, UniProt Q8B3M2).
T1 construct: cDNA corresponding to amino acid 2094–2353 of DWV polyprotein; made in house; host or cells: E. coli BL21
Kind of data set: FRET protease assay of GST-DWV 3C^pro with fluorogenic peptide substrate. The data set is classed as biochemical. To be noted: for IC50: pH 6.0, 33°C, n = 3, read-out: IC50 of DWV 3C^pro inhibitors; for Dependence of DWV 3C^pro inhibition on dithiothreitol: absence vs presence of 2 mM DTT. The procedure: Dabcyl-PVQAKPEMDNPNPGE-Edans derived from the cleavage site between L-protein and VP2 (underlined, 205-218 of polyprotein) was used as a peptide substrate to measure the protease activity. E was added to the C-terminus to link Edans. FRET experiments were performed with Varioskan LUX multimode microplate reader (Thermo Fisher). We measured 100 μL of reaction mixture with 50 mM Citrate buffer, pH 6.0, 150 mM NaCl, 2 mM EDTA, 2 mM DTT containing 1 μM GST-DWV 3C^pro and 20 μM fluorogenic peptide substrate in a 96-well flat-bottom white microplate at 33°C. The relative fluorescence was measured using an excitation wavelength of 336 nm and by monitoring the emission at 490 nm every 3 min for 30 min. In order to determine the optimal reaction condition for GST-DWV 3C^pro, various pH values, temperatures, and DTT concentrations were used. To test the effect of DTT on the activity, the protein dialyzed against TNE buffer was used. To determine the velocity of product formation, we precalibrated the instrument with the free Edans standard in the presence of 20 μM Dabcyl to calculate the relationship between relative fluorescence and substrate concentration. We calculated the kinetic parameters, Km, Vmax, and catalytic efficiency (Kcat/Km) assuming Michaelis-Menten kinetics for the cleavage of peptide.
To identify the inhibitors for DWV 3C^pro, various concentrations of the tested compounds were added. To determine the inhibitory effects of the various compounds, we preincubated the compound and enzyme on ice for 10 min prior to addition of the peptide substrate. To analyze the effects of ebselen, disulfiram, and carmofur, we used the enzyme dialyzed against TNE buffer and carried out the reaction with or without DTT. We determined the initial velocities of the enzymatic reactions and fitted to a sigmoidal dose-response equation with nonlinear regression analysis using GraphPad Prism 9. The data from three independent assays were used to determine IC50 value of each compound.

In data set [2] the test system is main protease of SARS-CoV-2. The note with it: by covalently modifying cysteine in the catalytic diad; cited from earlier work.
Data set [3] relates to DWV. Briefly: DWV replication (RdRP precursor synthesis, Western blot) in DWV-infected honey bee pupal head cells. Format: cell-based, Deformed wing virus (DWV). The method, then: Honey bee pupae with pale/pink eyes were collected from a mite-free colony. They were surface sterilized by washing with 10% bleach followed by sterile PBS three times (5 min for each wash). Heads from the pupae were dissected and homogenized seven times with 1 mL Grace culture medium using Dounce homogenizer (Loose fitting). The homogenate was then filtered through a cell strainer (Falcon) and the number of cells was counted. 10^6 cells were suspended in 100 μL of Grace medium containing 10% FBS, antibiotics (penicillin and streptomycin), and ebselen at the indicated concentration with or without DWV (MOI: 10) in 24-well plate at 33°C for 1 h. DWV used for this study was one of type A strains (VD-B7) we previously isolated from Varroa mite-infested pupa ([8]). […]
After DWV infection, the pupal head cells were collected by centrifugation, and then homogenized with 150 μL of RIPA buffer (20 mM Tris-HCl, pH 7.5, 150 mM NaCl, 1% NP-40, 0.5% sodium deoxycholate, 0.1% SDS) containing protease inhibitor cocktail. After centrifugation of the homogenate, the protein concentration of supernatant was measured using Enhanced BCA protein assay kit. The cell lysate with 20 μg of protein was analyzed by Western blot for each sample. […] Band intensity of 97 kDa RdRP precursor was measured by image-J.
On the technique in general: Immunoblotting shows a protein as a band on a membrane.

Data set [4] has as its system honey bee pupal head cells. Kind of data set: Cell viability of honey bee pupal head cells (CellTiter-Lumi, intracellular ATP). The data set is classed as cell-based, honey bee (Apis mellifera). The procedure: Honey bee pupal head cells were prepared as described above and 100 μL cell suspension (2 × 10^6/mL) was inoculated to each well in 96-well plate. The cells were cultured in the presence of either DMSO or ebselen at the indicated concentrations at 33°C for 16 h. The cultured plate was first incubated at room temperature for 10 min followed by adding 100 μL of reagent solution (CellTiter-Lumi Luminescent Cell Viability assay kit, Beyotime). The plate was shaken at room temperature for 2 min to promote cell lysis, and then further incubated for 10 min to stabilize the chemiluminescence signal. The signal was detected using Varioskan LUX multimode microplate reader and depends on intracellular ATP level, thus the relative viability of cells.

The test system of data set [5] is DWV. More on the design: method as in PMID 33643262. To be noted: based on the synthesis of RdRP, cited from earlier work.
Another data set concerns enterovirus 3C^pro. Set-up: method as in PMID 21813612, PMID 27645381, PMID 10197965. The note with it: cited from earlier work.
The subject of another data set is human rhinovirus 3C^pro. More on the design: method as in PMID 21813612, PMID 27645381, PMID 10197965. The note with it: cited from earlier work.
Where [6] appears, read: tested in the presence of 2 mM DTT, 1 μM enzyme, 20 μM peptide substrate.
[7] abbreviates: compounds tested with or without 2 mM DTT and only effective without DTT.
[8] abbreviates: peptide substrate 2-20 μM, Michaelis-Menten.

Read-outs that look alike come from different tables or passages of the source. Primed or numbered codes have the meaning given here. *: point of attachment. Dabcyl′ = CN(C)c1ccc(/N=N/c2ccc(C(=O)*)cc2)cc1; EDANS = O=S(=O)(O)c1cccc2c(NCCN*)cccc12

T1 sequence (Q8B3M2 2094-2353): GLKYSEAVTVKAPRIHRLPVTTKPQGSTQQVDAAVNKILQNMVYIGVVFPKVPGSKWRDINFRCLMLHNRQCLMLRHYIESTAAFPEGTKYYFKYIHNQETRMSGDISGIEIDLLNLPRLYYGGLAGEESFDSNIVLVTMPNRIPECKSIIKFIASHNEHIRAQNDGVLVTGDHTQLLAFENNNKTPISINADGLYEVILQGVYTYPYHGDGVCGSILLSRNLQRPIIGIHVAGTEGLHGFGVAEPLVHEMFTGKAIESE

In the case of `O=C1C(Cl)=C(Cl)C(=O)c2ncccc21` [6,7-dichloroquinoline-5,8-dione], the IC50 (usually the concentration at which inhibition is half-maximal) in data set [1] (setting [6]) was found to be 129 ± 1.8 µM.
`CCCCCCNC(=O)n1cc(F)c(=O)[nH]c1=O` [Carmofur]: the “Inhibition of the main protease of SARS-CoV-2” value (from here on “Inhibition … of SARS-CoV-2”) in data set [2] is “inhibit the main protease of SARS-CoV-2”. Also, the “Dependence of DWV 3C^pro inhibition on dithiothreitol” value (“Dependence of DWV 3C^pro inhibition” for short) in data set [1] is “only effective without dithiothreitol”. The IC50 in data set [1] (setting [7]) came out at 127 ± 6.2 µM.
`CCN(CC)C(=S)SSC(=S)N(CC)CC` [Disulfiram]: in data set [2], the “Inhibition … of SARS-CoV-2” value is given as “inhibit the main protease of SARS-CoV-2”. The “Dependence of DWV 3C^pro inhibition” value in data set [1] is “only effective without dithiothreitol”. The IC50 in data set [1] (setting [7]) turned out to be 35.6 ± 0.8 µM.
On to `O=c1c2ccccc2[se]n1-c1ccccc1` [Ebselen], for which the “Synthesis of the 97 kDa precursor of RdRP and 3C^pro” value with DWV [3] (DWV-infected pupal head cells, MOI 10, 33°C, 16 h, increasing ebselen concentrations vs DMSO) was “decreased the synthesis of the 97 kDa precursor of RdRP and 3C^pro in a concentration-dependent manner”. Besides, the “DWV replication in honey bee cells” value with DWV [3] (cultured honey bee cells) is “inhibited DWV replication”. Moreover, the “Toxicity to honey bee cells” value in data set [4] was “toxic to the cells”. Further, in data set [4] (30 μM, 16 h, 33°C), the “Cell viability (luminescence) vs DMSO” value is recorded as “no significant difference”. In addition, the Cell viability result in data set [4] (100 and 250 μM, 16 h, 33°C, vs DMSO) is “cell viability was reduced”. In addition, the “Inhibition … of SARS-CoV-2” value in data set [2] is given as “inhibit the main protease of SARS-CoV-2”. In data set [1], the “Dependence of DWV 3C^pro inhibition” value is listed as “only effective without dithiothreitol”. The IC50 in data set [1] (setting [7]) was found to be 1.66 ± 0.02 µM.
For the molecule `CC(C)C[C@H](NC(=O)OCc1ccccc1)C(=O)N[C@@H](CC1CCNC1=O)C(O)S(=O)(=O)O` (some centres unmarked) [GC376], in data set [1] (setting [6]), the IC50 is 55.2 ± 4 µM.
For the molecule `O=c1c(O)c(-c2ccc(O)c(O)c2)oc2cc(O)cc(O)c12` [Quercetin], the “DWV replication in honey bee pupal cells” value with DWV [5] is reported as “inhibited DWV replication”. In addition, the IC50 in data set [1] (setting [6]) was 430 ± 62.8 µM.
With `CCOC(=O)/C=C/[C@H](C[C@@H]1CCNC1=O)NC(=O)[C@@H](CC(=O)[C@@H](NC(=O)c1cc(C)on1)C(C)C)Cc1ccc(F)cc1` [Rupintrivir], the “DWV replication in honey bee pupal cells” value with DWV [5] was “inhibited DWV replication”; in the data set on DWV [5] (listed as rupintrivir) it was “suppresses DWV replication”. The results for the IC50 (in the data set on enterovirus 3C^pro; in data set [1] (setting [6]); with human rhinovirus 3C^pro) were 1.65 to 7.3 µM, 0.36 ± 0.03 µM and 0.005 µM, respectively.
Turning to `[Zn]` [Zinc, zinc], in data set [1] (setting [6]), the IC50 is 15200 ± 422 µM.
Take “PVQAKPEMDNPNPGE ({Dabcyl′}-PVQAKPEMDNPNPGE-{EDANS}) [Dabcyl-PVQAKPEMDNPNPGE-Edans, 15 amino acid fluorogenic FRET peptide substrate with the DWV L-protein/VP2 cleavage site]”: in data set [1] (setting [8]), the Km (in general, the concentration of substrate that gives half-maximal velocity) stood at 4.23 ± 0.256 µM and the Vmax (as a rule, the rate approached at saturating substrate) turned out to be 0.2538 ± 0.0067 µM/min.
